In the CATMoS acute toxicity set (Mansouri et al. 2021) one finds GHS category data, which are given here for 64 compounds.

This data set in a line: GHS categories as the set defines them, by LD50: 1 up to 5, 2 up to 50, 3 up to 300, 4 up to 2000, 5 above 2000 mg/kg. The note with it: rat; in vivo; po.
Turning to `C[C@@]12CC[C@@H]3[C@H](CC=C4C[C@H](OS(=O)(=O)O)CC[C@]43C)[C@H]1CCC2=O` (racemic), the GHS category worked out at 5. Take `CCCCCCOc1ccc(-c2ccc(C#N)cc2)cc1`: the GHS category worked out at 5. `CCCC(=O)N(C)C(=O)Oc1cccc2c1OCO2` returned a GHS category of 4. `C[C@H]1CCCC(=O)CCCC=Cc2cc(O)cc(O)c2C(=O)O1` came in with a GHS category of 5. `CC(=O)OCC1=CC[C@@]23C[C@@H]1C(C)(C)[C@@H]2CC[C@H]3C` gave a GHS category of 5. Compound `O=[N+]([O-])c1ccc(CCc2ccc([N+](=O)[O-])cc2)cc1` had a GHS category of 5.

In the case of `C#CCOc1cc(-n2nc(C(C)(C)C)oc2=O)c(Cl)cc1Cl`, the GHS category is reported as 5.

The compound `O=C1CCCCCN1SSN1CCCCCC1=O` yielded a GHS category of 5. The same measure for `O=C(NC(CCc1ccc2c(c1)OCO2)CCc1ccc2c(c1)OCO2)c1cc2ccccc2o1`: 5; for `COC(=O)c1ccc2c(C3CCCC3)cn(C)c2c1`: 5. Compound `COc1ccc(C(=O)CC(=O)c2ccc(C(C)(C)C)cc2)cc1` showed a GHS category of 5. As for `CC(=C(CCS(C)=O)SSC(CCS(C)=O)=C(C)N(C=O)Cc1cnc(C)nc1N)N(C=O)Cc1cnc(C)nc1N` (centres undefined), the figure is 4; as for `c1ccc(C2c3ccccc3CCN2c2ccccc2)cc1` (centres undefined), 4; as for `CC(C)(c1ccccc1)c1cc(-n2nc3ccccc3n2)c(O)c(C(C)(C)c2ccccc2)c1`, 5. In turn, `CCCCOC(=O)C(=O)[C@H]1[C@H](C)C[C@H]2[C@@H]3C[C@H](F)C4=CC(=O)C=C[C@]4(C)[C@H]3[C@@H](O)C[C@@]21C` returned a GHS category of 5. `CC(C)C(=O)c1ccc2cc(CC(=O)O)ccc2c1` yielded a GHS category of 5. `O=C(O)CCCC/C=C(\c1ccccc1)c1cccnc1` displayed a GHS category of 5. As for `CCOc1nc(NC)nc(NC(=O)NS(=O)(=O)c2ccccc2C(=O)OC)n1`, the figure is 5; as for `CC1CCN(c2nc3cc(Cl)ccc3o2)CCN1` (centres undefined), 4; as for `CCCc1c(Cc2ccc(-c3ccccc3-c3nn[nH]n3)cc2)c(=O)nc2[nH][nH]c(=O)n12`, 4. `CCCCCCCC/C=C\CCCCCCCC(=O)OCC(C)(C)COC(=O)CCCCCCC/C=C\CCCCCCCC`: the GHS category is reported as 5. As for `c1ccc2oc(C3(Cn4ccnc4)OCCCO3)cc2c1`, the figure is 4; as for `CCN(CC)CCc1nc(-c2cccc(O)c2)no1`, 5. `CC1(C)COC(Cn2cncn2)(c2cc3cc(Cl)cc(Cl)c3o2)OC1` had a GHS category of 4. `O=C[C@H](O[C@@H](C=O)[C@@H](O)[C@H](O)[C@H](O)CO)[C@@H](O)[C@H](O)[C@H](O)CO` showed a GHS category of 5. As for `CCCCC(CC)C(=O)OOC(C)(C)C` (centres undefined), the figure is 5. Consider `O=C1OC(=O)c2c(Br)c(Br)c(Br)c(Br)c21`, for which the GHS category is listed as 5.

`Cc1ccc(Cl)cc1NC(=O)c1cc2ccccc2cc1O` yielded a GHS category of 5. Consider `CC1COCc2cc3c(cc21)C(C)(C)C(C)C3(C)C` (centres undefined), for which the GHS category is 5. `C=CC(C)(O)CCCC(C)CCCC(C)CCCC(C)C` (centres undefined) came in with a GHS category of 5. With `CC1(C)CC2(CC(C)(C)c3ccc(O)cc32)c2cc(O)ccc21`, the GHS category was 5. Consider `CC(C)=CC(C)(C)CC(C)(C)C`, for which the GHS category is given as 5.

The compound `O=S(=O)(O)c1ccccc1Nc1ccc(C(=C2C=CC(=Nc3ccccc3)C=C2)c2ccc(Nc3ccccc3)cc2)cc1` yielded a GHS category of 5. Regarding `COCc1ccc(C=O)o1`, the GHS category was determined as 5. `FC(F)(F)N1C(F)(F)C(F)(F)OC(F)(F)C1(F)F` registered a GHS category of 5. For the compound `CC(=O)OC1CC[C@H]2[C@@H]3CC[C@H]4CC(=O)C=C(C)[C@]4(C)[C@H]3CC[C@]12C` (some centres undefined), the GHS category came out at 5. `O=C(O)c1cc(O)ccc1Nc1cccc(C(F)(F)F)c1`: the GHS category is 4. The same measure for `CCC(=O)O[C@H]1[C@H](O[C@@H]2[C@@H](C)[C@H](O[C@H]3C[C@@](C)(OC)[C@@H](O)[C@H](C)O3)[C@@H](C)C(=O)O[C@H](CC)[C@@](C)(O)[C@H](O)[C@@H](C)C(=O)[C@H](C)C[C@@]2(C)O)O[C@H](C)C[C@@H]1N(C)C`: 5; for `CC(=O)OCC(C)=CCCC1(C)C2CC3C(C2)C31C` (centres undefined): 5. Turning to `CCN(C(=O)SCc1ccccc1)C(C)C(C)C` (centres undefined), the GHS category is listed as 5. On to `CCCCOC(=O)CCP1(=O)Oc2ccccc2-c2ccccc21` (centres undefined), for which the GHS category stood at 5. For `CCOC(=O)C(F)C(C)=O` (centres undefined), the GHS category came out at 3. For the compound `NC(=O)[C@@H]1CCCN1C(=O)[C@H](Cc1cnc[nH]1)NC(=O)[C@@H]1CCC(=O)N1`, the GHS category came to 5.

`COc1ccc(C2(c3ccc(OC)c(C)c3)NC(=O)NC2=O)cc1` (centres undefined) showed a GHS category of 5. With `Nc1cc(Cl)c(Cl)cc1Cl`, the GHS category is recorded as 5. `CCCCOC(=O)C1C(C(=O)OCCCC)C2(Cl)C(Cl)=C(Cl)C1(Cl)C2(Cl)Cl` (centres undefined) registered a GHS category of 5. `c1ccc2c(c1)CCc1ccccc1N2` came in with a GHS category of 5.

`CC(=O)O[C@@H]1[C@H](OC(C)=O)[C@@H](C)O[C@H]1n1cc(F)c(N)nc1=O` gave a GHS category of 5. Consider `CCOC(=O)CC1(C)OCCO1`, for which the GHS category is 5. As for `O=C(Nc1ccccc1C(=O)O)C(=Cc1ccccc1)C(=O)Nc1ccccc1C(=O)O`, the figure is 5; as for `CCCc1nc2ncnn2c(CCC)c1Cc1ccc(-c2ccccc2-c2nn[nH]n2)cc1`, 4.

The compound `OCCOc1nn(-c2cccc(C(F)(F)F)c2)c2ncccc12` gave a GHS category of 4. In turn, `COC(=O)c1ccccc1S(=O)(=O)NC(=O)Nc1nc(OC(F)F)cc(OC(F)F)n1` displayed a GHS category of 5. For the compound `CC(C)(C)c1ccc(OP(=O)(Oc2ccccc2)Oc2ccccc2)cc1`, the GHS category came to 5. In the case of `CC(=O)OCC(=O)[C@@]1(OC(C)=O)[C@@H](C)C[C@H]2[C@@H]3C[C@H](F)C4=CC(=O)C=C[C@]4(C)[C@@]3(F)[C@@H](O)C[C@@]21C`, the GHS category was 5. In turn, `COC(=O)CCCCC(=O)OC` yielded a GHS category of 5. The compound `Cc1cc(C(=O)NCCc2ccc(S(=O)(=O)NC(=O)NC3CCCCC3)cc2)no1` came in with a GHS category of 5. `Cc1cc(=O)[nH]c2cc(OCCCN3CCC(Cc4ccccc4)CC3)ccc12` returned a GHS category of 4. The same measure for `N[C@@H](C(=O)N[C@@H]1C(=O)N2C(C(=O)O)=C(Cl)CS[C@H]12)c1ccccc1`: 5. `CCC1(C2=CCCCCC2)C(=O)NC(=O)NC1=O` showed a GHS category of 5. Compound `CC(=O)n1c(=O)oc2ccc(Cl)cc21` registered a GHS category of 5. In turn, `COc1ccccc1C=CC=O` had a GHS category of 5. As for `C=CC(=O)OCCCOc1ccc(C(=O)Oc2ccc(OC(=O)c3ccc(OCCCOC(=O)C=C)cc3)c(C)c2)cc1`, the GHS category was 5. `COc1cc(Cl)c(OC)cc1Cl` displayed a GHS category of 5.
